The text below walks through data of patent US20240360148A1 (SUVALENT THERAPEUTICS, INC., priority 2021, published 2024).

The assay concerns sumoylation levels (SUMO 2/3 conjugates) in HCT-116 cells. Description: HCT-116 4 Hour Cell Assay (Western, SUMO 2/3 conjugates). The note with it: Homo sapiens, HCT-116, 4 h, 4 h treatment, Anti-Sumo 2-3 immunoblot, read-out: HCT-116 Western 4 h IC50 (μM) Ave. It counts as cell-based. In outline:
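Cells treated 4 h with 11 three-fold dilutions from 25 μM; lysed in RIPA with NEM and Benzonase. Non-reducing SDS-PAGE immunoblot with anti-SUMO 2/3 mAb, IRDye fluorescent detection; conjugate signal normalized to total protein stain, IC50 from quantified bands.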
On the technique in general: A western blot detects proteins with antibodies after separation by electrophoresis.
Regarding `C=CC(=O)N1Cc2sc(C#N)c(C)c2[C@H](c2cccc(F)c2-c2cn(CC)nc2C(F)(F)F)C1` [Compound 222], the IC50 – broadly, the midpoint of a concentration-inhibition curve – was 0.0974 µM.

On to `CCn1cc(-c2c(F)cccc2[C@@H]2CN(C(=O)/C=C/CN(C)C)Cc3sc(C#N)c(C)c32)c(C(F)(F)F)n1` [Example 46, (S, E)-6-(4-(dimethylamino)but-2-enoyl)-4-(2-(1-ethyl-3-(trifluoromethyl)-1 H-pyrazol-4-yl)-3-fluorophenyl)-3-methyl-4,5,6,7-tetrahydrothieno[2,3-c]pyridine-2-carbonitrile], for which the IC50 was 0.0953 µM.

As for `CCn1cc(-c2c(F)cccc2[C@@H]2CN(C(=O)/C=C/CNC)Cc3sc(C#N)cc32)c(C(F)(F)F)n1` [Example 50], the concentration for half-maximal inhibition (IC50) is 0.157 µM.
